Holding throughout (format): functional
In assay [1] the test system is HCT-116. Briefly: Cell cycle arrest in human HCT116 cells harboring wild-type p53 assessed as accumulation at S phase at 12 uM measured after 48 hrs by Hoechst/BrdU staining based fluorescence assay (reference value: 68%).
For assay [2], the system named is HCT-116. In words: Cell cycle arrest in human HCT116 cells harboring wild-type p53 assessed as accumulation at S phase at 24 uM measured after 48 hrs by Hoechst/BrdU staining based fluorescence assay (reference value: 68%). On the technique in general: Dividing cells build labelled thymidine or BrdU into new DNA.
In assay [3] the test system is HCT-116. Briefly: Cell cycle arrest in human HCT116 cells harboring wild-type p53 assessed as accumulation at M phase at 12 uM measured after 48 hrs by Hoechst staining based fluorescence assay (reference value: 2.3 to […]).
Assay [4] relates to HCT-116. In words: Cell cycle arrest in human HCT116 cells harboring wild-type p53 assessed as accumulation at M phase at 24 uM measured after 48 hrs by Hoechst staining based fluorescence assay (reference value: 2.3 to […]).
Assay [5] deals with Huh-7. In words: Cell cycle arrest in human HuH7 cells assessed as accumulation at M phase by Hoechst staining based fluorescence assay.
The subject of assay [6] is HaCaT. In words: Cell cycle arrest in human HaCaT cells assessed as accumulation at G1/S phase by Hoechst staining based fluorescence assay.
The test system of assay [7] is Huh-7. In words: Cell cycle arrest in human HuH7 cells assessed as accumulation at G1/S phase by Hoechst staining based fluorescence assay.
The subject of assay [8] is PC-3. In words: Cell cycle arrest in human PC3 cells assessed as accumulation at G1/S phase by Hoechst staining based fluorescence assay.

Each structure is given as a SMILES string. The source made the active and inactive calls. The rule behind the calls is not given here.

In the case of `COc1cccc(/C=C/C(=O)c2c(OC)cc(OC)cc2OC)c1`, the Activity in assay [1] came to 20%; in assay [2], 0.6%; in assay [3], 4.5%; in assay [4], 1.2%. Further, the outcome in assay [5] was Active.

As to `COc1cccc(/C=C/C(=O)c2c(O)cc(OC)cc2OC)c1`, the outcome in assay [6] and in assay [7] was Active.

`COc1cc(O)c(C(=O)/C=C/c2ccccc2)c(OC)c1` [FLAVOKAWAIN B]: the outcome in assay [6], in assay [7] and in assay [8] was Active.

With `COc1cc(OC)c(C(=O)/C=C/c2ccc(F)cc2)c(OC)c1`, the result in assay [5] was Active.

Take `COc1cc(OC)c(C(=O)/C=C/c2ccc(Br)cc2)c(OC)c1`: the result in assay [5] was Active.

With `COc1cc(OC)c(C(=O)/C=C/c2ccccc2SC)c(OC)c1`, in assay [5], the outcome was Active.

As for `COc1cc(O)c(C(=O)/C=C/c2ccccc2SC)c(OC)c1`, the outcome in assay [5] was Active.
